Measurements taken from PubChem BioAssay AID328 (DTP/NCI, 2004).
Values joined by “and” are separate entries in the source; they are usually repeats but may differ in a detail not shown here. Equal values may be shown once. Toxic doses and inconclusive results are not listed.

Tested on: BDF1 mice, P388 leukemia ip, median survival T/C
Assay: NCI In Vivo Anticancer Drug Screen. Data for tumor model P388 Leukemia (intraperitoneal) in B6D2F1 (BDF1) mice
Conditions: endpoint: median survival time, higher = longer survival
Outline: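 Read-out is survival of treated animals expressed relative to the vehicle group, as a T/C ratio.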

[1] = dose: 50.0 mg/kg/injection, schedule: Q04DX003 (ip), vehicle: saline with Tween-80
[2] = dose: 100.0 mg/kg/injection, schedule: Q04DX003 (ip), vehicle: saline with Tween-80
[3] = dose: 200.0 mg/kg/injection, schedule: Q04DX003 (ip), vehicle: saline with Tween-80
[4] = dose: 50.0 mg/kg/injection, schedule: Q01DX009 (ip), vehicle: saline with Tween-80
[5] = dose: 100.0 mg/kg/injection, schedule: Q01DX009 (ip), vehicle: saline with Tween-80
[6] = dose: 200.0 mg/kg/injection, schedule: Q01DX009 (ip), vehicle: saline with Tween-80
[7] = dose: 50.0 mg/kg/injection, schedule: Q01DX009 (ip), vehicle: saline
[8] = dose: 100.0 mg/kg/injection, schedule: Q01DX009 (ip), vehicle: saline
[9] = dose: 200.0 mg/kg/injection, schedule: Q01DX009 (ip), vehicle: saline
[10] = dose: 100.0 mg/kg/injection, schedule: Q01DX009 (ip), vehicle: water
[11] = dose: 100.0 mg/kg/injection, schedule: Q04DX003 (ip), vehicle: saline
[12] = dose: 200.0 mg/kg/injection, schedule: Q01DX009 (ip), vehicle: water
[13] = dose: 200.0 mg/kg/injection, schedule: Q04DX003 (ip), vehicle: saline
[14] = dose: 400.0 mg/kg/injection, schedule: Q04DX003 (ip), vehicle: saline
[15] = dose: 100.0 mg/kg/injection, schedule: Q04DX003 (ip), vehicle: Klucel (hydroxypropylcellulose) (HPC)
[16] = dose: 200.0 mg/kg/injection, schedule: Q04DX003 (ip), vehicle: Klucel (hydroxypropylcellulose) (HPC)
[17] = dose: 25.0 mg/kg/injection, schedule: Q01DX009 (ip), vehicle: saline with Tween-80
[18] = dose: 400.0 mg/kg/injection, schedule: Q01DX009 (ip), vehicle: saline with Tween-80
[19] = dose: 400.0 mg/kg/injection, schedule: Q04DX003 (ip), vehicle: saline with Tween-80
[20] = dose: 400.0 mg/kg/injection, schedule: Q04DX003 (ip), vehicle: Klucel (hydroxypropylcellulose) (HPC)

## O=C(c1ccccc1)C1C(c2ccccc2)C2(CCCCC2=O)C(c2ccccc2)CC1(O)c1ccccc1 (configuration not stated)
dose: 25.0 mg/kg/injection, schedule: Q01DX001 (ip), vehicle: Klucel (hydroxypropylcellulose) (HPC)
  T/C: 88 % of control

## CCN(CC)CCN1C(=O)CN=C(c2ccccn2)c2cc(Cl)ccc21
[1]
  T/C: 95 % of control
[2]
  T/C: 100 % of control
[3]
  T/C: 105 % of control

## CCC1CCCC1O (configuration not stated)
[4]
  T/C: 101 % of control
[5]
  T/C: 102 % of control
[6]
  T/C: 100 % of control

## CCCCOCNc1ncccn1
[4]
  T/C: 100 % of control and 105 % of control
[5]
  T/C: 98 % of control and 112 % of control
[6]
  T/C: 100 % of control

## CC(C)CCCC(C)CCO (configuration not stated)
[7]
  T/C: 100 % of control
[8]
  T/C: 100 % of control
[9]
  T/C: 101 % of control

## CCOC(=O)C(C)(OCC)OCC
[7]
  T/C: 105 % of control
[8]
  T/C: 110 % of control
[10]
  T/C: 98 % of control
[11]
  T/C: 100 % of control
dose: 100.0 mg/kg/injection, schedule: Q04DX003 (ip), vehicle: water
  T/C: 104 % of control
[9]
  T/C: 115 % of control
[12]
  T/C: 101 % of control
[13]
  T/C: 91 % of control
dose: 200.0 mg/kg/injection, schedule: Q04DX003 (ip), vehicle: water
  T/C: 95 % of control
[14]
  T/C: 91 % of control
dose: 400.0 mg/kg/injection, schedule: Q04DX003 (ip), vehicle: water
  T/C: 100 % of control

## CCCN(CCC)c1ccc(C=O)cc1
dose: 50.0 mg/kg/injection, schedule: Q04DX003 (ip), vehicle: Klucel (hydroxypropylcellulose) (HPC)
  T/C: 100 % of control
[15]
  T/C: 105 % of control
[16]
  T/C: 94 % of control

## c1ccc(CN2CCN(Cc3ccccc3)C2c2ccccc2)cc1
[17]
  T/C: 103 % of control
[4]
  T/C: 97 % of control
[1]
  T/C: 107 % of control
[5]
  T/C: 97 % of control
[2]
  T/C: 107 % of control
[6]
  T/C: 104 % of control
[3]
  T/C: 103 % of control
[18]
  T/C: 106 % of control
[19]
  T/C: 96 % of control

## C=CCc1ccccc1OC
[4]
  T/C: 118 % of control
[5]
  T/C: 104 % of control

## CC1=CC(=O)N(O)CCCC(N)C(=O)OCCC(C)=CC(=O)N(O)CCCC(N)C(=O)OCCC(C)=CC(=O)N(O)CCCC(N)C(=O)OCC1 (configuration not stated)
dose: 3.0 mg/kg/injection, schedule: Q01DX009 (ip), vehicle: Klucel (hydroxypropylcellulose) (HPC)
  T/C: 89 % of control
dose: 6.0 mg/kg/injection, schedule: Q01DX009 (ip), vehicle: Klucel (hydroxypropylcellulose) (HPC)
  T/C: 87 % of control
dose: 12.0 mg/kg/injection, schedule: Q01DX009 (ip), vehicle: Klucel (hydroxypropylcellulose) (HPC)
  T/C: 87 % of control
dose: 24.0 mg/kg/injection, schedule: Q01DX009 (ip), vehicle: Klucel (hydroxypropylcellulose) (HPC)
  T/C: 92 % of control

## CCOc1ccc(Nc2c3ccccc3nc3ccccc23)cc1
dose: 0.39 mg/kg/injection, schedule: Q01DX009 (ip), vehicle: Klucel (hydroxypropylcellulose) (HPC)
  T/C: 110 % of control
dose: 0.78 mg/kg/injection, schedule: Q01DX009 (ip), vehicle: Klucel (hydroxypropylcellulose) (HPC)
  T/C: 114 % of control
dose: 1.56 mg/kg/injection, schedule: Q01DX009 (ip), vehicle: Klucel (hydroxypropylcellulose) (HPC)
  T/C: 96 % of control
dose: 50.0 mg/kg/injection, schedule: Q01DX009 (ip), vehicle: Klucel (hydroxypropylcellulose) (HPC)
  T/C: 159 % of control

## COC(=O)CCCCCCCC(=O)OCC#CC#CCOC(=O)CCCCCCCC(=O)OC
[15]
  T/C: 109 % of control
[16]
  T/C: 104 % of control
[20]
  T/C: 104 % of control

## C[C@]12C=CC(=O)C[C@@H]1CC[C@@H]1[C@@H]2C(=O)C[C@]2(C)C(=O)CC[C@@H]12
[5]
  T/C: 100 % of control
[6]
  T/C: 100 % of control
[18]
  T/C: 109 % of control

## COc1c(Br)cc(Br)cc1/C=C/[N+](=O)[O-]
dose: 6.25 mg/kg/injection, schedule: Q01DX009 (ip), vehicle: saline with Tween-80
  T/C: 114 % of control
dose: 12.5 mg/kg/injection, schedule: Q01DX009 (ip), vehicle: saline with Tween-80
  T/C: 114 % of control
[17]
  T/C: 116 % of control

## CCOC(=O)Oc1ccc(/C=N/NC(N)=S)nc1
[4]
  T/C: 169 % of control
[5]
  T/C: 178 % of control

## CC(O)C#N (configuration not stated)
dose: 1.25 mg/kg/injection, schedule: Q01DX009 (ip), vehicle: saline
  T/C: 108 % of control
dose: 2.5 mg/kg/injection, schedule: Q01DX009 (ip), vehicle: saline
  T/C: 101 % of control
dose: 5.0 mg/kg/injection, schedule: Q01DX009 (ip), vehicle: saline
  T/C: 101 % of control

## COc1ccc2c(c1)/C(=C/CCN(C)C)c1ccccc1S2
dose: 12.5 mg/kg/injection, schedule: Q01DX009 (ip), vehicle: saline
  T/C: 109 % of control
dose: 16.5 mg/kg/injection, schedule: Q01DX009 (ip), vehicle: saline
  T/C: 118 % of control
dose: 37.5 mg/kg/injection, schedule: Q01DX009 (ip), vehicle: saline
  T/C: 95 % of control
[7]
  T/C: 118 % of control

## CC(O)(c1ccc(Cl)cc1)C(c1ccccc1)c1ccccn1 (configuration not stated)
dose: 25.0 mg/kg/injection, schedule: Q01DX009 (ip), vehicle: water
  T/C: 101 % of control
dose: 50.0 mg/kg/injection, schedule: Q01DX009 (ip), vehicle: water
  T/C: 109 % of control
[10]
  T/C: 86 % of control
[12]
  T/C: 109 % of control
dose: 400.0 mg/kg/injection, schedule: Q01DX009 (ip), vehicle: water
  T/C: 99 % of control

## CCOC(=O)C(=CN1CCCC1)C(=O)OCC
[2]
  T/C: 100 % of control
[3]
  T/C: 100 % of control
[19]
  T/C: 109 % of control

## CC1(C)C(=O)C(C)(C)C1=NO
[11]
  T/C: 95 % of control
[13]
  T/C: 100 % of control
[14]
  T/C: 95 % of control

## Clc1cccc(Cl)c1Br
dose: 50.0 mg/kg/injection, schedule: Q04DX003 (ip), vehicle: gum acacia
  T/C: 95 % of control
dose: 100.0 mg/kg/injection, schedule: Q01DX009 (ip), vehicle: Klucel (hydroxypropylcellulose) (HPC)
  T/C: 100 % of control
[15]
  T/C: 88 % of control
dose: 100.0 mg/kg/injection, schedule: Q04DX003 (ip), vehicle: gum acacia
  T/C: 108 % of control
dose: 200.0 mg/kg/injection, schedule: Q01DX009 (ip), vehicle: Klucel (hydroxypropylcellulose) (HPC)
  T/C: 109 % of control
dose: 200.0 mg/kg/injection, schedule: Q04DX003 (ip), vehicle: gum acacia
  T/C: 100 % of control
dose: 400.0 mg/kg/injection, schedule: Q01DX009 (ip), vehicle: Klucel (hydroxypropylcellulose) (HPC)
  T/C: 90 % of control
[20]
  T/C: 115 % of control

## COc1ccc2cc3[n+](cc2c1OC)CCc1cc2c(cc1-3)OCO2
dose: 1.0 mg/kg/injection, schedule: Q01DX010 (ip), vehicle: steriod suspending solution
  T/C: 104 % of control
dose: 2.0 mg/kg/injection, schedule: Q01DX010 (ip), vehicle: steriod suspending solution
  T/C: 122 % of control
dose: 6.0 mg/kg/injection, schedule: Q01DX010 (ip), vehicle: saline
  T/C: 104 % of control

## CC1C=CCC2C(=O)OC(=O)C12 (configuration not stated)
dose: 25.0 mg/kg/injection, schedule: Q04DX003 (ip), vehicle: saline with Tween-80
  T/C: 100 % of control
[1]
  T/C: 100 % of control
[2]
  T/C: 100 % of control

## O=C(N=C1C=CC(=NC(=O)OCc2ccccc2)C=C1)OCc1ccccc1
[15]
  T/C: 95 % of control
[16]
  T/C: 100 % of control
[20]
  T/C: 100 % of control

## COc1cc(C=Nc2cc(Br)cc(Br)c2)ccc1N(CCCl)CCCl
dose: 18.75 mg/kg/injection, schedule: Q04DX003 (ip), vehicle: other
  T/C: 204 % of control
dose: 22.0 mg/kg/injection, schedule: Q04DX003 (ip), vehicle: saline with Tween-80
  T/C: 200 % of control
dose: 33.0 mg/kg/injection, schedule: Q04DX003 (ip), vehicle: saline with Tween-80
  T/C: 222 % of control
dose: 37.5 mg/kg/injection, schedule: Q04DX003 (ip), vehicle: other
  T/C: 250 % of control
[1]
  T/C: 218 % of control
dose: 60.0 mg/kg/injection, schedule: Q04DX003 (ip), vehicle: saline with Tween-80
  T/C: 272 % of control
dose: 75.0 mg/kg/injection, schedule: Q04DX003 (ip), vehicle: other
  T/C: 250 % of control
dose: 100.0 mg/kg/injection, schedule: Q04DX003 (ip), vehicle: saline sonified
  T/C: 154 % of control
dose: 200.0 mg/kg/injection, schedule: Q04DX003 (ip), vehicle: saline sonified
  T/C: 263 % of control
dose: 400.0 mg/kg/injection, schedule: Q04DX003 (ip), vehicle: saline sonified
  T/C: 118 % of control
